Reference: patent US6525027B2, “Use of ribose supplementation for increasing muscle mass and decreasing body fat in humans” (Bioenergy Inc., priority 2000, dated 2003)
Where “and” joins values, the source holds several entries; their conditions need not be identical. Equal entries are not always repeated.

Legend:
Assay type in all cases: in vivo, humans
[1] = Skinfold test, % body fat, before and after 10 weeks of weight training with supplementation
Protocol: (§1) The study subjects were healthy males, ages 18 to 40, with previous weight training experience. […] Pages 111-112.
(§2) The duration of the study was 10 weeks and included a supplementation regime of D-Ribose or D-Glucose as placebo control, combined with resistance weight training. The subjects were divided into two matched groups, four subjects received D-Ribose and two subjects received placebo.
(§3) Baseline testing was conducted before training and supplementation. Prior to any testing the subjects were required to read and sign an informed consent document. Subject information to be collected prior to the start of the exercise regimen included age, height, weight, body composition and performance measures. The body composition was determined by hydrostatic weighing and skinfold measurements to determine beginning percentage muscle mass and percentage body fat.
(§4) There were four training sessions per week. At each training session, the subject was accompanied by a supervisor to ensure proper lifting technique, safety and efficiency of the training session. D-Ribose or placebo at a dose of 5 gm was taken one-half hour before and one-half after the training session. On the three days per week when the subjects were not trained, the subjects were allowed to consume the supplement at their convenience. Dietary recalls were also kept on Tuesday, Wednesday and Thursday of each week, but not dietary requirements were imposed.
(§5) The lifting sessions were designed to exercise mainly the largest muscles of the body, that is, arm, leg, abdominals and back. All lifting sessions were preceded by warm-up sets of 20 repetitions at low weights. After week 4, the weight to be lifted was increased when the subject was able to do the maximum number of reps for all three sets. There was a 2-minute rest between each set and a 5 minute rest between each exercise. The lifting sessions were as follows:
(§6) Following the training period of 10 weeks, the subjects were tested as for the pre-testing procedure. […]

[2] = Underwater weight test (hydrostatic weighing), % body fat, before and after 10 weeks of weight training with supplementation
Protocol: as §1, §2, §3, §4, §5, §6

[3] = Performance measures: maximum weight lifted once (1RM), bench press and squat, after 10 weeks of training
Description: as §1, §2
Initial performance measures were individualized to each subject. The maximum weight each subject could lift once (1RM) was determined for the bench press and the squat lift. The maximal repetitions that each subject was able to lift of their own body weight was determined. Each subject performed as many repetitions as possible, followed by a one-minute rest and then repeated. The sets were continued until no weight could be lifted, limited by a maximum of 10 sets.
as §4, with “Dietary recalls were also kept on Tuesday, Wednesday and Thursday of each week, but not dietary requirements were imposed.” left out

[4] = Change in body weight after 10 weeks of training; conditions: placebo group remained the same
Protocol: as §1, §2, §3
as §4, with “Dietary recalls were also kept on Tuesday, Wednesday and Thursday of each week, but not dietary requirements were imposed.” left out

[5] = group average of four subjects, post compared to pre-training
[6] = individual subjects, after 10 weeks of weight training, 5 gm before and after each session
[7] = individual subjects, post training compared to pre-training
[8] = individual subjects, pre-training baseline

## O=C[C@H](O)[C@H](O)[C@H](O)CO [Ribose, D-Ribose]
[1]; [5]
  Skinfold Test, % Body Fat, Difference, Average: −3.1%
[1]; [6]
  Skinfold Test, % Body Fat, Post: 26.2% and 14.2% and 18.0% and 11.5%
[1]; [7]
  Skinfold Test, % Body Fat, Difference: −2.8% and −2.4% and −3.7% and −3.3%
[1]; [8]
  Skinfold Test, % Body Fat, Pre: 29.0% and 16.6% and 21.7% and 14.8%
[1]; ten week period, in words
  Decrease in subcutaneous body fat (skinfold test) compared with placebo: greater decrease in body fat
[2]; [5]
  Underwater Weight Test, % body fat, Difference, Average: −1.3%
[2]; [6]
  Underwater Weight Test, % body fat, Post: 18.5% and 23.6% and 12.5% and 27.8%
[2]; [7]
  Underwater Weight Test, % body fat, Difference: +0.8% and −1.1% and −5.0% and −21.9%
[2]; [8]
  Underwater Weight Test, % body fat, Pre: 17.7% and 22.5% and 17.5% and 29.7%
[2]; ten week period, in words
  Decrease in total body fat (underwater weight test) compared with placebo: greater decrease in body fat
[3]; placebo group 12 pounds
  Increase in 1 RM Squat re-test: 45.5 pounds
[3]; placebo group improved by 10 pounds
  Increase in weight lifted once in the bench press (1RM): 10.5 pounds
[4]
  Average increase in body weight: 3.4 pounds
